Measurements taken from ChEMBL document CHEMBL4507327 (2021).
pIC50: −log10 of the molar value.

What was measured:
[1] = biological target: Neuropeptide Y receptor type 2 (Homo sapiens) (UniProt P49146); experiment: Inhibition of Neuropeptide Y Y2 at 10 µM in the Eurofins-Panlabs radioligand binding assay (Eurofins_assay_257110); conditions: Compound concentration 10.0 uM
[2] = biological target: Alpha-1B adrenergic receptor (Homo sapiens) (UniProt P35368); experiment: Adrenergic alpha1B Eurofins-Panlabs radioligand binding assay; design: ligand concentration 0.2 nM; conditions: Compound concentration 10.0 uM
[3] = biological target: Interleukin-1 receptor type 1 (Homo sapiens) (UniProt P14778); experiment: Interleukin IL-1 R1 Eurofins-Panlabs radioligand binding assay; design: ligand concentration 0.1 nM; conditions: Compound concentration 10.0 uM
[4] = biological target: Activin receptor type-1-like (Homo sapiens, UniProt P37023); experiment: ALK1(ACL1LGF1) Takeda global kinase panel
[5] = biological target: Aurora kinase A (Homo sapiens, UniProt O14965); experiment: AurA [Aur2(AURALGF1)] Takeda global kinase panel
[6] = biological target: Aurora kinase B (Homo sapiens, UniProt Q96GD4); experiment: AurB [Aur1(AURBPGE1)] Takeda global kinase panel
[7] = biological target: Tyrosine-protein kinase Blk (Homo sapiens, UniProt P51451); experiment: BLK(BLK1CGF1) Takeda global kinase panel
[8] = biological target: Bone morphogenetic protein receptor type-1A (Homo sapiens, UniProt P36894); experiment: BMPR1A(BM1APHRG) Takeda global kinase panel
[9] = biological target: Tyrosine-protein kinase BTK (Homo sapiens, UniProt Q06187); experiment: BTK(BTK1CGF1) Takeda global kinase panel
[10] = biological target: Cyclin-dependent kinase 12 (Homo sapiens, UniProt Q9NYV4); experiment: CRK7(CD12PHS1) Takeda global kinase panel
[11] = biological target: Cyclin-dependent kinase 14 (Homo sapiens, UniProt O94921); experiment: PFTAIRE1(CD14CGS1) Takeda global kinase panel
[12] = biological target: Cyclin-dependent kinase 18 (Homo sapiens, UniProt Q07002); experiment: PCTAIRE3(CD18SGS1) Takeda global kinase panel
[13] = biological target: Dual specificity tyrosine-phosphorylation-regulated kinase 1A (Homo sapiens, UniProt Q13627); experiment: DYRK1A(DY1ALGP1) Takeda global kinase panel
[14] = biological target: Dual specificity tyrosine-phosphorylation-regulated kinase 2 (Homo sapiens, UniProt Q92630); experiment: DYRK2(DYR2LGY1) Takeda global kinase panel
[15] = biological target: Interferon-induced, double-stranded RNA-activated protein kinase (Homo sapiens, UniProt P19525); experiment: PKR(EIK2LGY1) Takeda global kinase panel
[16] = biological target: eIF-2-alpha kinase GCN2 (Homo sapiens, UniProt Q9P2K8); experiment: GCN2(EIK4PHK1) Takeda global kinase panel
[17] = biological target: Ephrin type-A receptor 8 (Homo sapiens, UniProt P29322); experiment: EphA8(EPA8LGF1) Takeda global kinase panel
[18] = biological target: Ephrin type-B receptor 4 (Homo sapiens, UniProt P54760); experiment: EphB4(EPB4LGY1) Takeda global kinase panel
[19] = biological target: Tyrosine-protein kinase Fgr (Homo sapiens, UniProt P09769); experiment: Fgr(FGR1LGF1) Takeda global kinase panel
[20] = biological target: G protein-coupled receptor kinase 5 (Homo sapiens, UniProt P34947); experiment: GRK5(GRK5LGP1) Takeda global kinase panel
[21] = biological target: G protein-coupled receptor kinase 6 (Homo sapiens, UniProt P43250); experiment: GRK6(GRK6LGP1) Takeda global kinase panel
[22] = biological target: Mitogen-activated protein kinase kinase kinase kinase 1 (Homo sapiens, UniProt Q92918); experiment: HPK1(M4K1LGY1) Takeda global kinase panel
[23] = biological target: Mitogen-activated protein kinase 12 (Homo sapiens, UniProt P53778); experiment: p38gamma(MP12LGP1) Takeda global kinase panel
[24] = biological target: Mitogen-activated protein kinase 6 (Homo sapiens, UniProt Q16659); experiment: ERK3(MAP6LHY1) Takeda global kinase panel
[25] = biological target: Mitogen-activated protein kinase 8 (Homo sapiens, UniProt P45983); experiment: JNK1(MAP8LGF1) Takeda global kinase panel
[26] = biological target: Serine/threonine-protein kinase MARK2 (Homo sapiens, UniProt Q7KZI7); experiment: MARK2(MAR2LGY1) Takeda global kinase panel
[27] = biological target: MAP/microtubule affinity-regulating kinase 3 (Homo sapiens, UniProt P27448); experiment: MARK3(MAR3LGO5) Takeda global kinase panel
[28] = biological target: Microtubule-associated serine/threonine-protein kinase 1 (Homo sapiens, UniProt Q9Y2H9); experiment: MAST1(MAS1LGE5) Takeda global kinase panel
[29] = biological target: Maternal embryonic leucine zipper kinase (Homo sapiens, UniProt Q14680); experiment: MELK(MELKLGF1) Takeda global kinase panel
[30] = biological target: High affinity nerve growth factor receptor (Homo sapiens, UniProt P04629); experiment: TRKA(NTR1LGN1) Takeda global kinase panel
[31] = biological target: NUAK family SNF1-like kinase 2 (Homo sapiens, UniProt Q9H093); experiment: NuaK2(NUA2LHY1) Takeda global kinase panel
[32] = biological target: Serine/threonine-protein kinase pim-3 (Homo sapiens, UniProt Q86V86); experiment: Pim3(PIM3LGP1) Takeda global kinase panel
[33] = biological target: Protein kinase C delta type (Homo sapiens, UniProt Q05655); experiment: PKCdelta(PRKDPFP1) Takeda global kinase panel
[34] = biological target: Protein kinase C epsilon type (Homo sapiens, UniProt Q02156); experiment: PKCepsilon(PRKELHY1) Takeda global kinase panel
[35] = biological target: Protein kinase C iota type (Homo sapiens, UniProt P41743); experiment: PKCiota(PRKILGRD) Takeda global kinase panel
[36] = biological target: Protein kinase C zeta type (Homo sapiens, UniProt Q05513); experiment: PKCzeta(PRKZLGP1) Takeda global kinase panel
[37] = biological target: Serine/threonine-protein kinase D1 (Homo sapiens, UniProt Q15139); experiment: PKD1(PRD1LHY1) Takeda global kinase panel
[38] = biological target: Serine/threonine-protein kinase H1 (Homo sapiens, UniProt P11801); experiment: PSKH1(PSH1LGRH) Takeda global kinase panel
[39] = biological target: Ribosomal protein S6 kinase alpha-5 (Homo sapiens, UniProt O75582); experiment: MSK1(R6A5LGY1) Takeda global kinase panel
[40] = biological target: STE20-like serine/threonine-protein kinase (Homo sapiens, UniProt Q9H2G2); experiment: SLK(SLK1LGRJ) Takeda global kinase panel
[41] = biological target: Serine/threonine-protein kinase 32C (Homo sapiens, UniProt Q86UX6); experiment: YANK3(S32CLGI1) Takeda global kinase panel
[42] = biological target: Serine/threonine-protein kinase 33 (Homo sapiens, UniProt Q9BYT3); experiment: STK33(ST33LGF1) Takeda global kinase panel
[43] = biological target: TGF-beta receptor type-1 (Homo sapiens, UniProt P36897); experiment: TGFbetaR1(TGF1LGF1) Takeda global kinase panel
[44] = biological target: Activated CDC42 kinase 1 (Homo sapiens, UniProt Q07912); experiment: Ack(TNK2LGF1) Takeda global kinase panel
[45] = biological target: Hormonally up-regulated neu tumor-associated kinase (Homo sapiens, UniProt P57058); experiment: HUNK(HUNKLGRN) Takeda global kinase panel
[46] = biological target: Bromodomain-containing protein 4 (Homo sapiens, UniProt O60885); experiment: BRD4(BRD4LGRC) Takeda global kinase panel
[47] = species on record: Homo sapiens; conditions: Compound concentration 10.0 uM

Sequence of Mitogen-activated protein kinase 6 (Q16659 whole entry): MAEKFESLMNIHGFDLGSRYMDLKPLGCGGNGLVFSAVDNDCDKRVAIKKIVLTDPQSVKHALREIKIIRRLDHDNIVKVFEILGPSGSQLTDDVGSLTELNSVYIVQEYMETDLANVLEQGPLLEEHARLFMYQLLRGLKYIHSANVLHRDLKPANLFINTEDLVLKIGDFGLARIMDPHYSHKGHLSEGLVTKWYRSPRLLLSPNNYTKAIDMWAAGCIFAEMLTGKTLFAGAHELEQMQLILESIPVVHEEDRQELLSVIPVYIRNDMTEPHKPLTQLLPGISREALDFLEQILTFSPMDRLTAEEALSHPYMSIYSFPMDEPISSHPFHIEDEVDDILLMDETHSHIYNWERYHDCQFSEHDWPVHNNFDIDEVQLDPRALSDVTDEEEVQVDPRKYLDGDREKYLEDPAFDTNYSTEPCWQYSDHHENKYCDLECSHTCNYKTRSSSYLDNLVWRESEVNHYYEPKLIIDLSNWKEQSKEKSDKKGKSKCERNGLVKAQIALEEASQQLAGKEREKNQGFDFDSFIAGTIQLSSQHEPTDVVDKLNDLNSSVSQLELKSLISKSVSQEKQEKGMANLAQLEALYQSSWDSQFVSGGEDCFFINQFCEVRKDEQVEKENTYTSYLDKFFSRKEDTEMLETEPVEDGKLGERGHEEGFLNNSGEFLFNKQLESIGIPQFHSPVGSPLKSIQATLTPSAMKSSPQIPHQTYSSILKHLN
Sequence of Neuropeptide Y receptor type 2 (Homo sapiens) (P49146 whole entry): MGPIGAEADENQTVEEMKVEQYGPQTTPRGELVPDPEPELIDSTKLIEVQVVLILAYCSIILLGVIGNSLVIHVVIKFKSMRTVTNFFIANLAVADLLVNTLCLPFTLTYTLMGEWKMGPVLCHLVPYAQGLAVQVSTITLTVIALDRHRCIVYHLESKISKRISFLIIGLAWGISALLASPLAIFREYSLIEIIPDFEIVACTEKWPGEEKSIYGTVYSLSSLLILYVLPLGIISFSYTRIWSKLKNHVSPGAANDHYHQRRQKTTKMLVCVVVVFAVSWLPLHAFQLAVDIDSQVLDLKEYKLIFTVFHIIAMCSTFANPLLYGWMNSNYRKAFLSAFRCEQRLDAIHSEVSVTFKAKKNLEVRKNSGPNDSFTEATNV
Sequence of G protein-coupled receptor kinase 5 (P34947 whole entry): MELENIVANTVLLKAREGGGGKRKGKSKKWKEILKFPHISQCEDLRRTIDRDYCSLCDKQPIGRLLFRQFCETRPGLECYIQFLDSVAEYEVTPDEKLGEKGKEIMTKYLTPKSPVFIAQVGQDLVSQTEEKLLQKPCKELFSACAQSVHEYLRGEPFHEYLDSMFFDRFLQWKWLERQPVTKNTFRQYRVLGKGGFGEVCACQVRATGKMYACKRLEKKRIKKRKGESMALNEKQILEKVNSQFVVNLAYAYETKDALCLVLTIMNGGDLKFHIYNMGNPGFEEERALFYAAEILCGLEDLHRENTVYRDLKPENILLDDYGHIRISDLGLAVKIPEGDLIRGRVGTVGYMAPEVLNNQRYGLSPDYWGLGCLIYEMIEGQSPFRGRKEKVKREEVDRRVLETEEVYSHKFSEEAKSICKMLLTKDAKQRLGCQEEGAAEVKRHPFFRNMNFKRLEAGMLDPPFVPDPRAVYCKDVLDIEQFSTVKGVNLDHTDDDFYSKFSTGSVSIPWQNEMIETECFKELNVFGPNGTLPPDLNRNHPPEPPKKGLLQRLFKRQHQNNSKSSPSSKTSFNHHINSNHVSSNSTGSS
Sequence of Protein kinase C zeta type (Q05513 whole entry): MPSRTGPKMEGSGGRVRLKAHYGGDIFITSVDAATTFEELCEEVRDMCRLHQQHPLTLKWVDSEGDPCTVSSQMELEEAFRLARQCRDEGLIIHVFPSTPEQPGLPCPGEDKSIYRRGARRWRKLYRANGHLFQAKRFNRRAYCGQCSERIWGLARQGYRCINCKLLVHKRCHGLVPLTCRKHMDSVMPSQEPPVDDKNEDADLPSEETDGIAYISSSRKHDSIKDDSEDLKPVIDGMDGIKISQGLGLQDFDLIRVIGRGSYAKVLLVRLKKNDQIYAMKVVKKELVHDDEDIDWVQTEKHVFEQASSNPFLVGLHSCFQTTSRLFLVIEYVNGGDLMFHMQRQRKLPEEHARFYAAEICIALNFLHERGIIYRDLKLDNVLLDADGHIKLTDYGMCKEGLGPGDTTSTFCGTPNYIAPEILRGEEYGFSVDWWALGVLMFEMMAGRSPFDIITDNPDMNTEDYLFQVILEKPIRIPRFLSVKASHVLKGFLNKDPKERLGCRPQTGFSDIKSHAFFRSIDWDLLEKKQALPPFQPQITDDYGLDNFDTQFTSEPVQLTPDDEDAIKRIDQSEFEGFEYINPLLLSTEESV
Sequence of Serine/threonine-protein kinase 32C (Q86UX6 whole entry): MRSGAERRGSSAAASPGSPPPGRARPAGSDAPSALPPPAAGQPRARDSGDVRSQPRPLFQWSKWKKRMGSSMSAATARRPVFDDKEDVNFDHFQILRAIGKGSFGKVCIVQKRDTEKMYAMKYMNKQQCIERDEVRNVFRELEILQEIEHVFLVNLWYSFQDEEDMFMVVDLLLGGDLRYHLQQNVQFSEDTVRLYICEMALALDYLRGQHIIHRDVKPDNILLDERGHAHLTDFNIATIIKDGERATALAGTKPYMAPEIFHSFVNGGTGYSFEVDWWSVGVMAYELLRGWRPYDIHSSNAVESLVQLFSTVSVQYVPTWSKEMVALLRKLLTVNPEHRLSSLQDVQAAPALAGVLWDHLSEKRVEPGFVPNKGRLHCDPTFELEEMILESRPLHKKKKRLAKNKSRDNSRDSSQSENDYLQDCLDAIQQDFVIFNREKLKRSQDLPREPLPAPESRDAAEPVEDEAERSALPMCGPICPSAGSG
Sequence of Tyrosine-protein kinase BTK (Q06187 whole entry): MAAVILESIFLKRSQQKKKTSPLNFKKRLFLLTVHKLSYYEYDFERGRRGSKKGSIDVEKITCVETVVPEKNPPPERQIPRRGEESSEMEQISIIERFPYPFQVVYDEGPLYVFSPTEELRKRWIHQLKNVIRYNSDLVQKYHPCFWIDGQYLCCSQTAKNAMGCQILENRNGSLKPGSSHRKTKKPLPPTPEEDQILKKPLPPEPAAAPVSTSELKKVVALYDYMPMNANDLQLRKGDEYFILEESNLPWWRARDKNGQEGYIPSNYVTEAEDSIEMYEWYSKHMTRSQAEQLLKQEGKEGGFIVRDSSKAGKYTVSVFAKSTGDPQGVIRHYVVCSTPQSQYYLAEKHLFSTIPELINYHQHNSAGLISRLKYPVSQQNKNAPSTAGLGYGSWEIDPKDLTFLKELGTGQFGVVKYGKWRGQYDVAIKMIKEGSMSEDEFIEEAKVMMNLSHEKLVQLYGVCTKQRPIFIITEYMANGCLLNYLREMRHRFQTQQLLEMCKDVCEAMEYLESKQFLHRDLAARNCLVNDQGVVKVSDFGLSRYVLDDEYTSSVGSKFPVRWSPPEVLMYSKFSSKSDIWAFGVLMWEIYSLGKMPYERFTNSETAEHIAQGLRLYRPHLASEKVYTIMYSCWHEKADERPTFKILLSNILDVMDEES
Sequence of Protein kinase C delta type (Q05655 whole entry): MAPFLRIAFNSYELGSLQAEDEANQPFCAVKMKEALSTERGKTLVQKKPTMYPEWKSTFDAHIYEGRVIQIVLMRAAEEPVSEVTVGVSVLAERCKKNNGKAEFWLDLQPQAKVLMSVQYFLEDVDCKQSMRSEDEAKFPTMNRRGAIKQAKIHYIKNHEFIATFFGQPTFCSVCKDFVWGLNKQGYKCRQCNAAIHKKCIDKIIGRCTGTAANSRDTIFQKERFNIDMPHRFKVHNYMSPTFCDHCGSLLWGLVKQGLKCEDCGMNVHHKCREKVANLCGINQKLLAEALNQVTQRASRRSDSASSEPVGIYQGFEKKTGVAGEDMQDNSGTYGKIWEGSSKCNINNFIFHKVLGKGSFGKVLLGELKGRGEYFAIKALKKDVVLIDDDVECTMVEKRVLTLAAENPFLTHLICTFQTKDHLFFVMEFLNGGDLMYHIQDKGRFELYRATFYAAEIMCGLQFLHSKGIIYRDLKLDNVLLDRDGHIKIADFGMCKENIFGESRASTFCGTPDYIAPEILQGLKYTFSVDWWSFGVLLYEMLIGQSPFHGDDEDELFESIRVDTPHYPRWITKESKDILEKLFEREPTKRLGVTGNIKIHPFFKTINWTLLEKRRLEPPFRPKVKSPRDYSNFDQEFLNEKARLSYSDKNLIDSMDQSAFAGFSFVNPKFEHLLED
Sequence of Mitogen-activated protein kinase 8 (P45983 whole entry): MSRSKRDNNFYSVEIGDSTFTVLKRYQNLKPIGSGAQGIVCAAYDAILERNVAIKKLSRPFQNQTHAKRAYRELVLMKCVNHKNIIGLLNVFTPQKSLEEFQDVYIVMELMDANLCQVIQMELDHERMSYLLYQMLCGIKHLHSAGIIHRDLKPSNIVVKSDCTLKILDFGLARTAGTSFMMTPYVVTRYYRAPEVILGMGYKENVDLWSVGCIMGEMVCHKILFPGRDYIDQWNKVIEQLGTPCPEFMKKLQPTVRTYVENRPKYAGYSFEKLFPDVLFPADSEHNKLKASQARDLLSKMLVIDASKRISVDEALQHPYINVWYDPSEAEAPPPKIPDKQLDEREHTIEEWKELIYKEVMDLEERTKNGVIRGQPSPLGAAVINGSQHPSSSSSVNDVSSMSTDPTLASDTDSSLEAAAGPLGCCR
Sequence of Cyclin-dependent kinase 14 (O94921 whole entry): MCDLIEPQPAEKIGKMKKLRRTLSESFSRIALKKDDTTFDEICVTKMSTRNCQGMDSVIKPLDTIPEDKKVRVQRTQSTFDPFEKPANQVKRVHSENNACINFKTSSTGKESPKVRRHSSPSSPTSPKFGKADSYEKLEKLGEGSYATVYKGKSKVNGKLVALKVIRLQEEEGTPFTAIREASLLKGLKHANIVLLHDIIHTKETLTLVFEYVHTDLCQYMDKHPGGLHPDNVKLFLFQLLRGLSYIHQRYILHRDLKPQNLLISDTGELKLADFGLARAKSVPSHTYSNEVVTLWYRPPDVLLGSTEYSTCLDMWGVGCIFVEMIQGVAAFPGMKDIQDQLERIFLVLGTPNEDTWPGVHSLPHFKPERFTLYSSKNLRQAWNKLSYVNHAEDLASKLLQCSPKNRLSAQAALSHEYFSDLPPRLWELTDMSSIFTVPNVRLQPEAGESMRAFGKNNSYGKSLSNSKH

## CN1C(=O)[C@@H](N2CCc3cn(CC4CCS(=O)(=O)CC4)nc3C2=O)COc2ccccc21 [TP-030n]
[1]
  inhibition: 1%
[2]
  inhibition: 1%
[3]
  inhibition: -9%
[4]
  pIC50: 6.00
[5]
  pIC50: 6.00
[6]
  pIC50: 6.00
[7]
  pIC50: 6.00
[8]
  pIC50: 6.00
[9]
  pIC50: 6.00
[10]
  pIC50: 6.00
[11]
  pIC50: 6.00
[12]
  pIC50: 6.00
[13]
  pIC50: 6.00
[14]
  pIC50: 6.00
[15]
  pIC50: 6.00
[16]
  pIC50: 6.00
[17]
  pIC50: 6.00
[18]
  pIC50: 6.00
[19]
  pIC50: 6.00
[20]
  pIC50: 6.00
[21]
  pIC50: 6.00
[22]
  pIC50: 6.00
[23]
  pIC50: 6.00
[24]
  pIC50: 6.00
[25]
  pIC50: 6.00
[26]
  pIC50: 6.00
[27]
  pIC50: 6.00
[28]
  pIC50: 6.00
[29]
  pIC50: 6.00
[30]
  pIC50: 6.00
[31]
  pIC50: 6.00
[32]
  pIC50: 6.00
[33]
  pIC50: 6.00
[34]
  pIC50: 6.00
[35]
  pIC50: 6.00
[36]
  pIC50: 6.00
[37]
  pIC50: 6.00
[38]
  pIC50: 6.00
[39]
  pIC50: 6.00
[40]
  pIC50: 6.00
[41]
  pIC50: 6.00
[42]
  pIC50: 6.00
[43]
  pIC50: 6.00
[44]
  pIC50: 6.00
[45]
  pIC50: 6.00
[46]
  pIC50: 6.00
[47]
  inhibition: 2%
